Here are results for three substances from patent US6339062B1, “Retroinverso polypeptides that mimic or inhibit thrombospondin activity” (Inkine Pharmaceutical Company, Inc., priority 1998, dated 2002).

Data set [1] concerns mouse B16-F10 melanoma cells. As to the kind of experiment: Tumor cell metastasis, one i.p. injection of peptide (Example 32). Conditions: 1 mg peptide i.p. once; 14 days; FIG. 21. It counts as in vivo. As to the method: Mouse B16-F10 melanoma cells (75,000 ) were injected intravenously and was immediately followed by one intraperitoneal injection of 1 mg of peptide. Six animals were treated with each peptide. Animals were sacrificed 14 days later and lung colonies counted. The data shown in FIG. 21 represents the mean of lung colonies and the error bars represent the standard error of the mean. The peptides, d-Gly-Cys-(Acm)-Thr-Val-Ser-Cys-(Acm) (retroinverso) (SEQ ID NO: 35), and l-Cys-(Acm)-Ser-Val-Thr-Cys-(Acm)-Gly (SEQ ID NO: 6) inhibited metastasis by more than 80%, whereas d-Cys-Ser-Val-Thr-Cys-Gly (SEQ ID NO: 40) had no effect.

The subject of data set [2] is mouse B16-F10 melanoma cells. As to the kind of experiment: Direct adhesion to dried peptide (Example 31). Format: cell-based. As to conditions: 10 μg of each peptide; one hour; FIG. 20. On the procedure:
Peptide effect on direct adhesion was tested by drying 10 μg of each peptide on the bottom of a 96well microtiter plate. Plates were blocked with BSA. Mouse B16-F10 melanoma cells (50,000) were plated in each well and allowed to attach for one hour. Non-adherent cells were aspirated out, plates rinsed, and adherent cells were fixed, stained, and counted. The error bars represent the standard deviation.

In data set [3] the test system is mouse B16-F10 melanoma cells. As to the kind of experiment: Boyden chamber assay, TSP-1 mediated invasion of collagen (Examples 29, 30). Format: cell-based. As to conditions: for dose-dependent effect on melanoma cell invasion: FIG. 19. On the procedure: Cell invasion was investigated by the Boyden Chamber Invasion Assay using the modified Boyden chamber. T. Frandsen et al., Fibrinolysis, 6: 71-76 (1992). Polycarbonate filters, 12 μm pore size, e.g., Millicell, Millipore Corporation, Bedford, Ma, were coated with 100 μg Type IV collagen (1 mg/ml 60% EtOH) and dried overnight at 25° C. Blind-well Boyden chambers are filled with 600 μl of serum-free media containing 0.1% BSA in the lower compartment, and the coated filters will be mounted in the chamber. Approximately 50,000 cells (tested to be greater than 95% viable) suspended in 400 μl of the same media will be placed in the upper chamber of the apparatus and allowed to settle onto the collagen-coated membrane. Varying concentrations of TSP-1 (0-150 nM) will be placed in the lower compartment and any neutralizing antibodies as well as peptides will be placed in the upper chamber. After an incubation period of about 3 to 6 hours at 37° C., the cells on the upper surface of the filter will be removed with a cotton swab. The filters are then fixed in 3% glutaraldehyde solution and stained with 0.5% crystal violet solution. Invasive cells adhering to the under-surface of the filter are counted using a phase contrast microscope (400×).
Using this assay, mouse B16-F10 melanoma cells (50,000) were plated on the collagen-coated disk of the Boyden chamber apparatus. The top chamber contained melanoma cells in the presence of 500 μg/ml of the TSP-1 derived peptide and the bottom chamber contained 20 μg/ml TSP-1. After 6 hours, cells traversing the collagen were counted as cells attached to the underside of the collagen-coated disk. Five representative fields per chamber in duplicate were counted. The data shown in FIG. 18 represents the average per field and the error bars represent the standard deviation. The scrambled peptide, Val-Cys-Thr-Gly-Ser-Cys (SEQ ID NO: 7), the irrelevant peptide, Ala-Ser-Val-Thr-Ala-Arg (SEQ ID NO: 38), buffer, and the d-amino acid Cys-Ser-Val-Thr-Cys-Gly (SEQ ID NO: 40) had no effect on invasion.
The experiments were performed as described for Example 29. […] In contrast, d-Cys-Ser-Val-Thr-Cys-Gly (SEQ ID NO: 40) had no effect.

Data set [4] relates to platelets (platelet-rich-plasma). As to the kind of experiment: Platelet aggregation assay in platelet-rich-plasma (Example 8). Format: cell-based. As to conditions: in vitro; FIG. 22. On the procedure: Platelet aggregation was monitored on a single-channel aggregometer equipped to measure luminescence (Chromo-Log, Havertown, Pa.). Platelet-rich-plasma (PRP) was obtained from whole blood anticoagulated with 0.38% sodium citrate by centrifugation at 150×g for 20 minutes.
0.5 ml aliquots of platelet-rich-plasma were aggregated by stirring with 2 uM ADP in the presence of various concentrations of Cys-Ser-Val-Thr-Cys-Gly (SEQ ID NO: 21) and Gly-Arg-Gly-Asp-Ser (SEQ ID NO: 36). Aggregation was measured at 37° as decrease in optical absorbance vs. time in a chrono-log aggregometer and is shown in FIG. 8. Peptides designated in each panel are represented by their amino acid sequence using the one letter amino acid code.

The subject of data set [5] is melanoma cells on absorbed thrombospondin. As to the kind of experiment: Competitive assay, thrombospondin specific adhesion to melanoma cells (Example 17). It counts as cell-based, mouse. From the text: The direct adhesion assay of Example 16 was modified to measure the ability of the peptide compounds of the invention to compete with intact thrombospondin for adhesion to melanoma cells.
In this assay, intact thrombospondin is absorbed onto microtiter dishes as described in Example 16. […]

For data set [6], the system named is Mouse B16 F10 melanoma cells. As to the kind of experiment: Direct adhesion assay (Example 16). It counts as cell-based. As to conditions: absorbed compound 2 μg. On the procedure: It is believed that thrombospondin acts in metastasis through its adhesive properties. An assay was developed, generally in accordance with the disclosure of Tuszynski et al., Anal. Bio., 184:189-91 (1990), which evaluates the ability of melanoma cells to adhere to the thrombospondin fragments or analogs of the invention. In this assay, wells of a 96-well microtiter dish (Costar, Cambridge, Mass.) were incubated for two to three hours with […] of a […] solution of various ligands in 20 mM NaCl, pH 7.3. Thrombospondin (purified by the method of Tuszynski et al., J. Biol. Chem., 260:12240-5 (1985), fibronectin (Sigma Chemical Co., Missouri) served as the positive control. Bovine serum albumin (BSA) (Sigma Chemical Co.) served as the negative control. Thrombospondin analogs of the invention p1, p5 and p6 were synthesized as described in Examples 1 through 3. Following peptide adhesion to the microtiter dish, the wells were aspirated, treated with 200 μl phosphate buffered saline (PBS) containing 1% BSA for 1 hour and then washed three more times with 200 μl PBS.
Mouse B16 F10 melanoma cells were grown and harvested during log phase of growth using standard procedures. The harvested cells were washed two times in serum-free Dulbecco's minimum essential medium (DMEM) (Flow Laboratories) and suspended in DMEM at a final concentration of 4×10^5 cells/ml. Of the cell suspension 100 μl was added to each well of the microtiter dish containing the various ligands and the dish incubated at 37° C. in a CO2 incubator for 1 hour. Nonadherent cells were removed by aspiration and the wells washed three times with 200 μl of PBS. The total cell-associated protein was determined by dissolving the attached cells directly in the microtiter wells with 200 μl of the Pierce BCA working solution (Pierce Chem. Co. Booklet No. 23225 (1987)). […] Plates were allowed to cool to room temperature, cover sheets were removed, and the absorbance of each well was determined at 562 nm with a microtiter plate reader (Biotek, Burlington, Vt.)

Data set [7] has as its system platelets on absorbed thrombospondin (TSP). As to the kind of experiment: Competitive platelet adhesion assay, absorbed thrombospondin (Example 19). Format: cell-based. As to conditions: 250 μg/ml; absorbed protein TSP. As to the method: (§1) The direct adhesion assay of Example 18 was modified to measure the ability of the peptide compounds of the invention to compete with intact thrombospindin or fibronectin for adhesion of platelets.
(§2) In this assay, thrombospondin (TSP) or fibronectin (FN) was absorbed onto microtiter dish as described in Example 18. The assay was similar to Example 18 except that before platelets were added to the microtiter dishes they were preincubated with 250 μg/ml of various ligands.

Data set [8] relates to platelets on absorbed fibronectin (FN). As to the kind of experiment: Competitive platelet adhesion assay, absorbed fibronectin (Example 19). As to conditions: 250 μg/ml; absorbed protein FN. It counts as cell-based. On the procedure: as §1, §2
Data set [9] deals with B16 F10 mouse melanoma cells. As to the kind of experiment: Antimetastatic activity in vivo (Example 20). Also on record: species or system C57 black mice. Conditions: 16 days.
Data set [10] concerns mouse B16-F10 melanoma cells. As to the kind of experiment: Melanoma lung metastasis, daily i.p. from day 3 after implantation (Example 23). Format: in vivo, mice. As to conditions: daily i.p. for 10 days from day 3, FIG. 14. As to the method: Mice were intravenously injected with mouse B16-F10 melanoma cells (75,000). After 3 days, each mouse was treated daily by intraperitoneal injection with either PBS, 0.01 mg, or 1 mg of peptide for 10 days. Treatment groups consisted of 5 mice. After 10 days animals were sacrificed and lung tumors counted. Error bars represent the standard error of the mean. p<0.001 between control- and peptide-treated groups.

Data set [11] concerns mouse B16-F10 melanoma cells. As to the kind of experiment: Melanoma lung metastasis, one bolus i.v. or i.p. (Example 22). Format: in vivo. As to the method: One bolus injection of Cys-(Acm)-Ser-Val-Thr-Cys-(Acm)-Gly (SEQ ID NO: 6) peptide (1 mg/mouse intravenously or 5 mg/mouse intraperitoneally ) was administered followed by intravenous injection of mouse B16-F10 melanoma cells (100,000). Each treatment group consisted of 5 animals. After 10 days animals were sacrificed and lung tumors counted. […] Error bars represent the standard error of the mean. P values between control and peptide-treated groups <0.001.

A short description of data set [12]: Stability toward oxidation. As to conditions: compared with unblocked peptide. It counts as physicochemical.

Where no end group is shown, it is not given here. [ ]: non-standard residue; d: D form. The star is where a group is joined. Acm = CC(=O)NC*; For = O=C*

In the case of “[dC]SVTCG (cysteine pairing not given here)”, the “inhibition of metastasis (lung colonies)” value in data set [1] is “no effect”. Moreover, in data set [2], the “adhesion of cells to dried peptide” value is “did not promote adhesion”. Besides, the “inhibition of TSP-1 mediated invasion” value in data set [3] (500 μg/ml peptide top chamber, 20 μg/ml TSP-1 bottom chamber, 6 hours, FIG. 18) was “no effect”. The “dose-dependent effect on melanoma cell invasion” value in [3] is “no effect”.
Turning to “fTrp-Ser-Pro-Cys-Ser-Val-Thr-Cys-Gly-NH2 (For-WSPCSVTCG-NH2; cysteine pairing not given here) [p5]”, the platelet aggregation result in data set [4] is “inhibit platelet aggregation”. The “% of Buffer Control (melanoma cell adhesion to thrombospondin)” value is given as 99% in data set [5] (10 μg/ml), 104% in data set [5] (50 μg/ml), 89% in data set [5] (200 μg/ml) and 83% in [5] (300 μg/ml). The “Adhesion as % Thrombospondin” value in [6] is given as “display adhesive properties”; in data set [6] (listed as P5), 79%. Besides, the “% Buffer Control (platelet adhesion)” value was determined as 107% in data set [7] and 109% in data set [8]. The “% buffer control (number of lung tumors)” value in [9] (30 μg/mouse) was found to be 87%. The “number of tumors compared with controls” value in [9] is given as “statistically fewer tumors than controls”.
In the case of C(Acm)SVTC(Acm)G, the “reduction in lung colonies with respect to buffer-treated” value in [10] (0.01 mg/ml-treated animals) was 27%. The “suppression of melanoma colonies” value in data set [10] (1 mg/ml treated animals) is “more than 80%”. The “blocking activity in metastasis and the other assays, peptide versus blocked analogue” value in data set [11] (mouse, in vivo) is given as “identical blocking activity”. In addition, the “fewer lung metastasis as compared to saline or scrambled peptide controls” value in data set [11] (one bolus, 1 mg/mouse i.v. or 5 mg/mouse i.p., 10 days) amounted to 80%. In addition, the large lung metastases result in data set [11] (one bolus, 10 days) is on record as “few large lung metastases”. For the same substance, the stability toward oxidation result in data set [12] is “more stable toward oxidation”. Besides, the “adhesion of cells to dried peptide” value in data set [2] is “half as well as fibronectin and TSP-1”. Besides, in data set [3], the “dose-dependent effect on melanoma cell invasion” value is reported as “same dose-dependent inhibition”.
